Article PMC9389804 (Journal of Hematology & Oncology, 2022)

Assay: safety assessments (adverse events, NCI CTCAE)
Settings: AE resulting in dose interruption
Protocol: Adverse events were assessed continuously and graded according to NCI CTCAE v5.0.18. Complete blood count with differential, serum chemistries, and physical examinations were performed before the study; weekly during Cycles 1 and 2; on alternate weeks in Cycles 3 and 4; and monthly thereafter.

Cc1ccc(C(=O)Nc2ccc(CN3CCN(C)CC3)c(C(F)(F)F)c2)cc1C#Cc1cnc2[nH]ncc2c1 [olverembatinib]
Acute myocardial infarction (Accelerated phase n=38): 0 n (%)
Anal abscess (Accelerated phase n=38): 1 (2.6) n (%)
Anemia (Accelerated phase n=38): 5 (13.2) n (%)
Atrial fibrillation (Accelerated phase n=38): 1 (2.6) n (%)
Atrial septal defect (Accelerated phase n=38): 0 n (%)
Chest pain (Accelerated phase n=38): 0 n (%)
Cholecystitis acute (Accelerated phase n=38): 0 n (%)
Cholelithiasis (Accelerated phase n=38): 0 n (%)
Febrile neutropenia (Accelerated phase n=38): 0 n (%)
Glaucoma (Accelerated phase n=38): 0 n (%)
Hematologic (Accelerated phase n=38): 22 (57.9) n (%)
Hemorrhoids (Accelerated phase n=38): 0 n (%)
Hepatocellular injury (Accelerated phase n=38): 1 (2.6) n (%)
Hyperbilirubinaemia (Accelerated phase n=38): 0 n (%)
Hyperglycaemia (Accelerated phase n=38): 0 n (%)
Hyperkalemia (Accelerated phase n=38): 1 (2.6) n (%)
Hypertriglyceridaemia (Accelerated phase n=38): 1 (2.6) n (%)
Hyperuricaemia (Accelerated phase n=38): 0 n (%)
Hypocalcemia (Accelerated phase n=38): 0 n (%)
Hypoesthesia (Accelerated phase n=38): 0 n (%)
Hypokalemia (Accelerated phase n=38): 2 (5.3) n (%)
Hyponatremia (Accelerated phase n=38): 0 n (%)
Increased alanine aminotransferase (Accelerated phase n=38): 1 (2.6) n (%)
Increased amylase (Accelerated phase n=38): 0 n (%)
Increased aspartate aminotransferase (Accelerated phase n=38): 1 (2.6) n (%)
Increased creatine phosphokinase (Accelerated phase n=38): 1 (2.6) n (%)
Increased pulmonary arterial pressure (Accelerated phase n=38): 0 n (%)
Increased γ-glutamyl transferase (Accelerated phase n=38): 0 n (%)
Influenza like illness (Accelerated phase n=38): 0 n (%)
Iridocyclitis (Accelerated phase n=38): 1 (2.6) n (%)
Lacunar infarction (Accelerated phase n=38): 0 n (%)
Leukopenia (Accelerated phase n=38): 5 (13.2) n (%)
Liver disorder (Accelerated phase n=38): 0 n (%)
Musculoskeletal pain (Accelerated phase n=38): 1 (2.6) n (%)
Myocardial strain (Accelerated phase n=38): 0 n (%)
Neutropenia (Accelerated phase n=38): 4 (10.5) n (%)
Nonhematologic (Accelerated phase n=38): 14 (36.8) n (%)
Pain (Accelerated phase n=38): 0 n (%)
Pain in extremity (Accelerated phase n=38): 0 n (%)
Peripheral swelling (Accelerated phase n=38): 0 n (%)
Pneumonia (Accelerated phase n=38): 0 n (%)
Proteinuria (Accelerated phase n=38): 0 n (%)
Pulmonary arterial hypertension (Accelerated phase n=38): 0 n (%)
Pulmonary tuberculosis (Accelerated phase n=38): 1 (2.6) n (%)
Pyrexia (Accelerated phase n=38): 2 (5.3) n (%)
Rash (Accelerated phase n=38): 1 (2.6) n (%)
Refraction disorder (Accelerated phase n=38): 0 n (%)
Sinus bradycardia (Accelerated phase n=38): 0 n (%)
Sinus tachycardia (Accelerated phase n=38): 1 (2.6) n (%)
Skin mass (Accelerated phase n=38): 0 n (%)
Superior mesenteric artery syndrome (Accelerated phase n=38): 0 n (%)
Supraventricular extrasystoles (Accelerated phase n=38): 1 (2.6) n (%)
Swelling (Accelerated phase n=38): 0 n (%)
Thrombocytopenia (Accelerated phase n=38): 17 (44.7) n (%)
Upper-respiratory-tract infection (Accelerated phase n=38): 1 (2.6) n (%)
Urinary sediment present (Accelerated phase n=38): 0 n (%)
Acute myocardial infarction (Chronic phase n=127): 1 (0.8) n (%)
Anal abscess (Chronic phase n=127): 0 n (%)
Anemia (Chronic phase n=127): 3 (2.4) n (%)
Atrial fibrillation (Chronic phase n=127): 1 (0.8) n (%)
Atrial septal defect (Chronic phase n=127): 1 (0.8) n (%)
Chest pain (Chronic phase n=127): 1 (0.8) n (%)
Cholecystitis acute (Chronic phase n=127): 1 (0.8) n (%)
Cholelithiasis (Chronic phase n=127): 1 (0.8) n (%)
Febrile neutropenia (Chronic phase n=127): 1 (0.8) n (%)
Glaucoma (Chronic phase n=127): 1 (0.8) n (%)
Hematologic (Chronic phase n=127): 44 (34.6) n (%)
Hemorrhoids (Chronic phase n=127): 1 (0.8) n (%)
Hepatocellular injury (Chronic phase n=127): 0 n (%)
Hyperbilirubinaemia (Chronic phase n=127): 2 (1.6) n (%)
Hyperglycaemia (Chronic phase n=127): 1 (0.8) n (%)
Hyperkalemia (Chronic phase n=127): 0 n (%)
Hypertriglyceridaemia (Chronic phase n=127): 3 (2.4) n (%)
Hyperuricaemia (Chronic phase n=127): 1 (0.8) n (%)
Hypocalcemia (Chronic phase n=127): 3 (2.4) n (%)
Hypoesthesia (Chronic phase n=127): 1 (0.8) n (%)
Hypokalemia (Chronic phase n=127): 0 n (%)
Hyponatremia (Chronic phase n=127): 1 (0.8) n (%)
Increased alanine aminotransferase (Chronic phase n=127): 3 (2.4) n (%)
Increased amylase (Chronic phase n=127): 1 (0.8) n (%)
Increased aspartate aminotransferase (Chronic phase n=127): 2 (1.6) n (%)
Increased creatine phosphokinase (Chronic phase n=127): 3 (2.4) n (%)
Increased pulmonary arterial pressure (Chronic phase n=127): 1 (0.8) n (%)
Increased γ-glutamyl transferase (Chronic phase n=127): 1 (0.8) n (%)
Influenza like illness (Chronic phase n=127): 1 (0.8) n (%)
Iridocyclitis (Chronic phase n=127): 0 n (%)
Lacunar infarction (Chronic phase n=127): 1 (0.8) n (%)
Leukopenia (Chronic phase n=127): 4 (3.1) n (%)
Liver disorder (Chronic phase n=127): 1 (0.8) n (%)
Musculoskeletal pain (Chronic phase n=127): 0 n (%)
Myocardial strain (Chronic phase n=127): 1 (0.8) n (%)
Neutropenia (Chronic phase n=127): 1 (0.8) n (%)
Nonhematologic (Chronic phase n=127): 34 (26.8) n (%)
Pain (Chronic phase n=127): 1 (0.8) n (%)
Pain in extremity (Chronic phase n=127): 1 (0.8) n (%)
Pericardial effusion (Chronic phase n=127): 0 n (%)
Peripheral swelling (Chronic phase n=127): 1 (0.8) n (%)
Pneumonia (Chronic phase n=127): 2 (1.6) n (%)
Proteinuria (Chronic phase n=127): 1 (0.8) n (%)
Pulmonary arterial hypertension (Chronic phase n=127): 1 (0.8) n (%)
Pulmonary tuberculosis (Chronic phase n=127): 0 n (%)
Pyrexia (Chronic phase n=127): 1 (0.8) n (%)
Rash (Chronic phase n=127): 0 n (%)
Refraction disorder (Chronic phase n=127): 1 (0.8) n (%)
Sinus bradycardia (Chronic phase n=127): 1 (0.8) n (%)
Sinus tachycardia (Chronic phase n=127): 1 (0.8) n (%)
Skin mass (Chronic phase n=127): 1 (0.8) n (%)
Superior mesenteric artery syndrome (Chronic phase n=127): 1 (0.8) n (%)
Supraventricular extrasystoles (Chronic phase n=127): 0 n (%)
Swelling (Chronic phase n=127): 1 (0.8) n (%)
Thrombocytopenia (Chronic phase n=127): 42 (33.1) n (%)
Upper-respiratory-tract infection (Chronic phase n=127): 1 (0.8) n (%)
Urinary sediment present (Chronic phase n=127): 1 (0.8) n (%)
Acute myocardial infarction (Total n=165): 1 (0.6) n (%)
Anal abscess (Total n=165): 1 (0.6) n (%)
Anemia (Total n=165): 8 (4.8) n (%)
Atrial fibrillation (Total n=165): 2 (1.2) n (%)
Atrial septal defect (Total n=165): 1 (0.6) n (%)
Chest pain (Total n=165): 1 (0.6) n (%)
Cholecystitis acute (Total n=165): 1 (0.6) n (%)
Cholelithiasis (Total n=165): 1 (0.6) n (%)
Febrile neutropenia (Total n=165): 1 (0.6) n (%)
Glaucoma (Total n=165): 1 (0.6) n (%)
Hematologic (Total n=165): 66 (40.0) n (%)
Hemorrhoids (Total n=165): 1 (0.6) n (%)
Hepatocellular injury (Total n=165): 1 (0.6) n (%)
Hyperbilirubinaemia (Total n=165): 2 (1.2) n (%)
Hyperglycaemia (Total n=165): 1 (0.6) n (%)
Hyperkalemia (Total n=165): 1 (0.6) n (%)
Hypertriglyceridaemia (Total n=165): 4 (2.4) n (%)
Hyperuricaemia (Total n=165): 1 (0.6) n (%)
Hypocalcemia (Total n=165): 3 (1.8) n (%)
Hypoesthesia (Total n=165): 1 (0.6) n (%)
Hypokalemia (Total n=165): 2 (1.2) n (%)
Hyponatremia (Total n=165): 1 (0.6) n (%)
Increased alanine aminotransferase (Total n=165): 4 (2.4) n (%)
Increased amylase (Total n=165): 1 (0.6) n (%)
Increased aspartate aminotransferase (Total n=165): 3 (1.8) n (%)
Increased creatine phosphokinase (Total n=165): 4 (2.4) n (%)
Increased pulmonary arterial pressure (Total n=165): 1 (0.6) n (%)
Increased γ-glutamyl transferase (Total n=165): 1 (0.6) n (%)
Influenza like illness (Total n=165): 1 (0.6) n (%)
Iridocyclitis (Total n=165): 1 (0.6) n (%)
Lacunar infarction (Total n=165): 1 (0.6) n (%)
Leukopenia (Total n=165): 9 (5.5) n (%)
Liver disorder (Total n=165): 1 (0.6) n (%)
